Experimental data from patent US11116774B2, “Modulators of toll-like receptors for the treatment of HIV” (Gilead Sciences, Inc., priority 2014, dated 2021).
Where “and” joins values, the source holds several entries; their conditions need not be identical. Identical values can stand only once.

Experiments:
[1] = test system: SIVmac251; assay: TLR7 modulating compound in cART treated SIV+ rhesus with undetectable plasma viremia: plasma SIV RNA during dosing and after cART cessation (Example 204); type: in vivo, Indian rhesus macaques (Macaca mulatta); conditions: for Plasma SIV RNA: 0.3 mg/kg oral, on cART
Procedure: A group of 10 Indian rhesus macaques (Macaca mulatta) were treated with the compound of Example 4 or dosing vehicle of Example 201 (placebo group) in a multiple dose, dose escalation study. The macaques were infected with simian immunodeficiency virus (SIVmac251) by repeat low-dose rectal mucosal challenge. Beginning on day 65 post-infection, after establishment of peak viremia and an early viral chronic set point, the animals were treated with a the cART by sub-cutaneous injection at 1 mL/kg, the administration of which was for approximately one year. During the time of cART administration plasma viral loads decreased to undetectable levels (SIV gag RNA<50 copies/mL) by Day 168 post-infection, and were maintained for approximately 5 months prior to administration of the compound of Example 4 by use of daily cART. In addition, animals were maintained on the same cART regimen when dosed with the compound of Example 4. The amount of antiretrovirals administered to each animal, on a daily basis, in the cART formulation were 20 mg/kg tenofovir, 50 mg/kg emtricitibine (FTC), and 2.5 mg/kg dolutegravir. The animals were administered cART daily from approximately day 65 post-infection, through viral suppression and administration of the compound of Example 4 until approximately two weeks post-last dose of the compound from Example 4 at which time cART was stopped to monitor plasma viral load rebound kinetics.
Beginning on Day 317 post-infection, the animals were dosed once every other week with either the compound of Example 4 or dosing vehicle of Example 201 (placebo group). Four animals were dosed with the compound of Example 4, prepared as described in Example 201. The first week, 1 mL/kg of the 0.1 mg/mL formulation was dosed, corresponding to a dose of 0.1 mg/kg. The third week, 1 mL/kg of the 0.2 mg/mL formulation was dosed, corresponding to a dose of 0.2 mg/kg. On weeks five through thirteen, 1 mL/kg of the 0.3 mg/mL formulation was dosed, corresponding to a dose of 0.3 mg/kg (seven doses in total). The other six animals were controls, of which three were given seven doses of saline by oral gavage once every two weeks; the other three animals were left untreated. Approximately two weeks following the last dose of the compound of Example 4, cART was stopped in the three saline-dosed placebo animals and the four animals who had received the compound of Example 4. Approximately one month later, cART was stopped in the three untreated control animals. Following cART cessation viral loads were monitored for a period of six months.
Each formulation of the compound of Example 4 or dosing vehicle of Example 201 was thawed at room temperature prior to dosing. Animals were dosed by oral gavage via nasogastric tube.
Plasma viral loads (expressed as SIV RNA copies per mL of plasma) were determined by quantitative RT-PCR of the SIV RNA measuring the gag gene transcripts at various times throughout the study. Viral loads for each animal for each study day relative to time of administration of the first dose of the compound of Example 4 are depicted in FIG. 3; dosing days are shown by the arrows on the horizontal x-axis.
After two weeks following the last dose of study drug, cART therapy was also stopped in all dosed (placebo dosed included) animals. In the untreated control group of animals, cART was stopped 30 days later. Table 2 denotes the average viral load chronic set point from day 42-81 following cessation of cART for each of the animals in the study. […] However, when comparing the pre-cART plasma SIV RNA chronic set point to the post-cART cessation chronic set point within the animals administered the compound of Example 4 this was approximately ˜0.5 log10 lower (mean change for all animals treated with the compound of Example 4) than the change observed in those animals in the placebo group (mean change for all animals administered dosing vehicle of Example 201).

[2] = test system: polyfunctional proliferating CD8 T cells (CFSE low, IFNg+, TNFa+); assay: Induction of HIV-specific polyfunctional CD8 T cells by combination with an IDO1 inhibitor (Example 217); type: cell-based, human; conditions: 0.1 uM; PBMCs from 4 HIV-infected donors; 8 days
Procedure: PBMCs from 4 HIV-infected donors (Donor IDs 180-183) on suppressive cART were isolated, as described previously, stained with CFSE, and treated with 500 ng/ml 15-mer peptide pools derived from overlapping HIV gag, pol, nef, and env consensus peptides (JPT Peptide Technologies GmbH). PBMC cultures were treated with DMSO or the compound of Example 49 (GS-9620) at 0.1 uM. In some cultures treated with Example 49, the IDO1 small molecule inhibitor, INCB024360, was combined at 2 μM. Cells were incubated at 37° C. for 8 days, then split into duplicate sets and stained in DPBS with LIVE/DEAD Fixable Aqua Dead Cell Stain (Life Technologies). The immune recall response was performed as previously described. FACS was performed on a LSR Fortessa (BD Biosciences) and data analysis was done with FlowJo software (TreeStar). Data was plotted and statistical analysis was done with GraphPad Prism software (GraphPad).

SMILES	Plasma SIV RNA ([1]; Dose 4, 1 day post-dose) [copies/mL]	Plasma SIV RNA ([1]; Dose 4, 3 days post-dose) [copies/mL]	Plasma SIV RNA ([1]; Dose 4, 7 days post-dose) [copies/mL]	Plasma SIV RNA ([1]; Dose 4, Pre) [copies/mL]	Plasma SIV RNA ([1]; Dose 5, 2 days post-dose)	Plasma SIV RNA ([1]; Dose 5, 7 days post-dose) [copies/mL]	Plasma SIV RNA ([1]; Dose 5, Pre) [copies/mL]	Plasma SIV RNA ([1]; Dose 6, 7 days post-dose) [copies/mL]	Plasma SIV RNA ([1]; Dose 6, Pre) [copies/mL]	Plasma SIV RNA ([1]; Dose 7, 7 days post-dose) [copies/mL]	Plasma SIV RNA ([1]; Dose 7, Pre) [copies/mL]	time virus levels remained undetectable after the last dose ([1]; SIV+ rhesus on cART) [days]	plasma virus levels returned to baseline prior to the following dose ([1]; SIV+ rhesus on cART, 0.3 mg/kg doses) [copies per mL]	time after dose at which detectable plasma virus was observed ([1]; SIV+ rhesus on cART, after each of the last three doses at 0.3 mg/kg, oral, once every other week) [h]	pre-cART to post-cART cessation plasma SIV RNA chronic set point change, lower than the change in the placebo group ([1]; mean change for all treated animals, set point day 42-81 following cessation of cART) [log10]	Mean Change in Chronic Set Point ([1]; mean of the four dosed animals)	Plasma SIV RNA Chronic Set Point Day 42-81 Post-cART Cessation ([1]; per animal, after seven doses (0.1, 0.2, 0.3 mg/kg) every other week)	Plasma SIV RNA Chronic Set Point Day 42-63 Pre-cART ([1]; per animal, baseline before cART and before dosing)	Change in Chronic Set Point ([1]; per animal, post-cART cessation versus pre-cART)	increase of mean level of polyfunctional proliferating CD8 T cells compared to DMSO [2] [fold]
CCCCOc1nc(N)c2c(n1)N(Cc1ccc(CN3CCCC3)cc1)CC(=O)N2 [Example 4]	<50	<50	<50	<50	344 copies/mL and 361 copies/mL and 563 copies/mL and 623 copies/mL	<50	<50	<50	<50	<50	<50	13	< 50	24 to 72	~0.5	−1.26 -log10 copy/mL	3,553 copy/mL and 10,062 copy/mL and 20,146 copy/mL and 24,527 copy/mL	237,667 copy/mL and 76,833 copy/mL and 156,333 copy/mL and 666,333 copy/mL	−1.83 -log10 copy/mL and −0.88 -log10 copy/mL and −0.89 -log10 copy/mL and −1.43 -log10 copy/mL	–
CCCCOc1nc(N)c2c(n1)N(Cc1cccc(CN3CCCC3)c1)CC(=O)N2 [Example 49]	–	–	–	–	–	–	–	–	–	–	–	–	–	–	–	–	–	–	–	2.9
